Assays:
Type in all cases: cell-based
H23 = experiment: Cancer cell panel, cell viability (resazurin): NSCLC, H23; settings: 72 hours, labelled drug combined with Example 3
A375 = experiment: Cancer cell panel, cell viability (resazurin): Melanoma, A375; settings: 72 hours, labelled drug combined with Example 3
PC3 = experiment: Cancer cell panel, cell viability (resazurin): Prostate, PC3; settings: 72 hours, labelled drug combined with Example 3
Protocol: (§1) Cells were plated in 96-well plates and treated for 72 hours with a serially diluted CK2 inhibitor or anti-cancer drug or their combination. The suspension cell lines were treated right after plating, while the adherent cells were allowed to attach overnight prior to the start of the treatment.
(§2) Cell viability was determined by adding resazurin to cell cultures and measuring fluorescence with a plate reader. Relative cell viability was calculated by dividing the cell viability signal from a test sample by that of a non-treated control. […] Bliss Independence and Highest Single Agent models were used to determine if there is synergy, additivity or antagonism between the CK2 inhibitor and an anti-cancer drug.

U87MG = experiment: Cancer cell panel, cell viability (resazurin): Glioblastoma, U87MG; settings: 72 hours, labelled drug combined with Example 3
Protocol: as §1, §2

H1299 = experiment: Cancer cell panel, cell viability (resazurin): NSCLC, H1299; settings: 72 hours, labelled drug combined with Example 3
ZR-75-1 = experiment: Cancer cell panel, cell viability (resazurin): Breast, ZR-75-1; settings: ZR-75-1 (Breast), 72 hours; labelled drug combined with Example 3
HL60 = experiment: Cancer cell panel, cell viability (resazurin): Leukemia, HL60; settings: 72 hours, labelled drug combined with Example 3
SK-MEL-24 = experiment: Cancer cell panel, cell viability (resazurin): Melanoma, SK-MEL-24; settings: SK-MEL-24 (Melanoma), 72 hours; labelled drug combined with Example 3
SKOV-3 = experiment: Cancer cell panel, cell viability (resazurin): Ovarian, SKOV-3; settings: SKOV-3 (Ovarian), 72 hours; labelled drug combined with Example 3
Protocol: as §1, §2

A2780 = experiment: Cancer cell panel, cell viability (resazurin): Ovarian, A2780; settings: 72 hours, labelled drug combined with Example 3
Protocol: as §1, §2

ACHN = experiment: Cancer cell panel, cell viability (resazurin): Renal, ACHN; settings: 72 hours, labelled drug combined with Example 3
MDA-MB-231 = experiment: Cancer cell panel, cell viability (resazurin): Breast, MDA-MB-231; settings: MDA-MB-231 (Breast), 72 hours; labelled drug combined with Example 3
Panc-1 = experiment: Cancer cell panel, cell viability (resazurin): Pancreatic, Panc-1; settings: Panc-1 (Pancreatic), 72 hours; labelled drug combined with Example 3
Protocol: as §1, §2

Caov-3 = experiment: Cancer cell panel, cell viability (resazurin): Ovarian, Caov-3; settings: Caov-3 (Ovarian), 72 hours; labelled drug combined with Example 3
Protocol: as §1, §2

H2122 = experiment: Cancer cell panel, cell viability (resazurin): NSCLC, H2122; settings: 72 hours, labelled drug combined with Example 3
Protocol: as §1, §2

RPMI8226 = experiment: Cancer cell panel, cell viability (resazurin): multiple myeloma, RPMI8226; settings: 72 hours, labelled drug combined with Example 3
786-O = experiment: Cancer cell panel, cell viability (resazurin): Renal, 786-O; settings: 786-O (Renal), 72 hours; labelled drug combined with Example 3
Protocol: as §1, §2

NAMALWA = experiment: Cancer cell panel, cell viability (resazurin): Burkitt's Lymphoma, NAMALWA; settings: 72 hours, labelled drug combined with Example 3
Protocol: as §1, §2

LoVo = experiment: Cancer cell panel, cell viability (resazurin): Colon, LoVo; settings: 72 hours, labelled drug combined with Example 3
Protocol: as §1, §2

SK-MEL-3 = experiment: Cancer cell panel, cell viability (resazurin): Melanoma, SK-MEL-3; settings: SK-MEL-3 (Melanoma), 72 hours; labelled drug combined with Example 3
Protocol: as §1, §2

OVCAR-3 = experiment: Cancer cell panel, cell viability (resazurin): Ovarian, OVCAR-3; settings: OVCAR-3 (Ovarian), 72 hours; labelled drug combined with Example 3
H460 = experiment: Cancer cell panel, cell viability (resazurin): NSCLC, H460; settings: 72 hours, labelled drug combined with Example 3
DLD-1 = experiment: Cancer cell panel, cell viability (resazurin): Colon, DLD-1; settings: DLD-1 (Colon), 72 hours; labelled drug combined with Example 3
Protocol: as §1, §2

WM-115 = experiment: Cancer cell panel, cell viability (resazurin): Melanoma, WM-115; settings: WM-115 (Melanoma), 72 hours; labelled drug combined with Example 3
Protocol: as §1, §2

Colo205 = experiment: Cancer cell panel, cell viability (resazurin): Colon, Colo205; settings: 72 hours, labelled drug combined with Example 3
MOLT4 = experiment: Cancer cell panel, cell viability (resazurin): Leukemia, MOLT4; settings: 72 hours, labelled drug combined with Example 3
K562 = experiment: Cancer cell panel, cell viability (resazurin): Leukemia, K562; settings: 72 hours, labelled drug combined with Example 3
T47D = experiment: Cancer cell panel, cell viability (resazurin): Breast, T47D; settings: 72 hours, labelled drug combined with Example 3
BT-474 = experiment: Cancer cell panel, cell viability (resazurin): Breast, BT-474; settings: BT-474 (Breast), 72 hours; labelled drug combined with Example 3
Daudi = experiment: Cancer cell panel, cell viability (resazurin): Burkitt's Lymphoma, Daudi; settings: 72 hours, labelled drug combined with Example 3
Caki-1 = experiment: Cancer cell panel, cell viability (resazurin): Renal, Caki-1; settings: Caki-1 (Renal), 72 hours; labelled drug combined with Example 3
HT29 = experiment: Cancer cell panel, cell viability (resazurin): Colon, HT29; settings: 72 hours, labelled drug combined with Example 3
Protocol: as §1, §2

EOL-1 = experiment: Cancer cell panel, cell viability (resazurin): Leukemia, EOL-1; settings: EOL-1 (Leukemia), 72 hours; labelled drug combined with Example 3
MDA-MB-453 = experiment: Cancer cell panel, cell viability (resazurin): Breast, MDA-MB-453; settings: MDA-MB-453 (Breast), 72 hours; labelled drug combined with Example 3
Protocol: as §1, §2

U266 = experiment: Cancer cell panel, cell viability (resazurin): multiple myeloma, U266; settings: 72 hours, labelled drug combined with Example 3
SkBr-3 = experiment: Cancer cell panel, cell viability (resazurin): Breast, SkBr-3; settings: SkBr-3 (Breast), 72 hours; labelled drug combined with Example 3
H1975 = experiment: Cancer cell panel, cell viability (resazurin): NSCLC, H1975; settings: 72 hours, labelled drug combined with Example 3
BxPC3 = experiment: Cancer cell panel, cell viability (resazurin): Pancreatic, BxPC3; settings: 72 hours, labelled drug combined with Example 3
BT-20 = experiment: Cancer cell panel, cell viability (resazurin): Breast, BT-20; settings: BT-20 (Breast), 72 hours; labelled drug combined with Example 3

Structure (SMILES): C#Cc1cccc(Nc2ncnc3cc(OCCOC)c(OCCOC)cc23)c1 [Erlotinib, erlotinib]
- synergy, additivity or antagonism of the combination of Example 3 with the anti-cancer drug (H23): + + + (Synergy relative to each agent alone (CI = 0.4-0.74 by Bliss Independence Model))
- synergy, additivity or antagonism of the combination of Example 3 with the anti-cancer drug (A375): + + (Slight synergy relative to each agent alone (CI = 0.75-0.9 by Bliss Independence Model))
- synergy, additivity or antagonism of the combination of Example 3 with the anti-cancer drug (PC3): − (Slightly antagonistic relative to each agent alone (CI = 1.1-1.2 by Highest Single Agent Model))
- synergy, additivity or antagonism of the combination of Example 3 with the anti-cancer drug (U87MG): + (Additive relative to each agent alone (CI = 0.9-1 by Bliss Independence Model and <0.9 by Highest Single Agent Model))
- synergy, additivity or antagonism of the combination of Example 3 with the anti-cancer drug (H1299): + (Additive relative to each agent alone (CI = 0.9-1 by Bliss Independence Model and <0.9 by Highest Single Agent Model))
- synergy, additivity or antagonism of the combination of Example 3 with the anti-cancer drug (ZR-75-1): + (Additive relative to each agent alone (CI = 0.9-1 by Bliss Independence Model and <0.9 by Highest Single Agent Model))
- synergy, additivity or antagonism of the combination of Example 3 with the anti-cancer drug (HL60): + + (Slight synergy relative to each agent alone (CI = 0.75-0.9 by Bliss Independence Model))
- synergy, additivity or antagonism of the combination of Example 3 with the anti-cancer drug (SK-MEL-24): + (Additive relative to each agent alone (CI = 0.9-1 by Bliss Independence Model and <0.9 by Highest Single Agent Model))
- synergy, additivity or antagonism of the combination of Example 3 with the anti-cancer drug (SKOV-3): + + + (Synergy relative to each agent alone (CI = 0.4-0.74 by Bliss Independence Model))
- synergy, additivity or antagonism of the combination of Example 3 with the anti-cancer drug (A2780): + + (Slight synergy relative to each agent alone (CI = 0.75-0.9 by Bliss Independence Model))
- synergy, additivity or antagonism of the combination of Example 3 with the anti-cancer drug (ACHN): + (Additive relative to each agent alone (CI = 0.9-1 by Bliss Independence Model and <0.9 by Highest Single Agent Model))
- synergy, additivity or antagonism of the combination of Example 3 with the anti-cancer drug (MDA-MB-231): + + (Slight synergy relative to each agent alone (CI = 0.75-0.9 by Bliss Independence Model))
- synergy, additivity or antagonism of the combination of Example 3 with the anti-cancer drug (Panc-1): + (Additive relative to each agent alone (CI = 0.9-1 by Bliss Independence Model and <0.9 by Highest Single Agent Model))
- synergy, additivity or antagonism of the combination of Example 3 with the anti-cancer drug (Caov-3): + + (Slight synergy relative to each agent alone (CI = 0.75-0.9 by Bliss Independence Model))
- synergy, additivity or antagonism of the combination of Example 3 with the anti-cancer drug (H2122): + + + + (Strong synergy relative to each agent alone (CI < 0.4 by Bliss Independence Model))
- synergy, additivity or antagonism of the combination of Example 3 with the anti-cancer drug (RPMI8226): + + + (Synergy relative to each agent alone (CI = 0.4-0.74 by Bliss Independence Model))
- synergy, additivity or antagonism of the combination of Example 3 with the anti-cancer drug (786-O): + + (Slight synergy relative to each agent alone (CI = 0.75-0.9 by Bliss Independence Model))
- synergy, additivity or antagonism of the combination of Example 3 with the anti-cancer drug (NAMALWA): + (Additive relative to each agent alone (CI = 0.9-1 by Bliss Independence Model and <0.9 by Highest Single Agent Model))
- synergy, additivity or antagonism of the combination of Example 3 with the anti-cancer drug (LoVo): + (Additive relative to each agent alone (CI = 0.9-1 by Bliss Independence Model and <0.9 by Highest Single Agent Model))
- synergy, additivity or antagonism of the combination of Example 3 with the anti-cancer drug (SK-MEL-3): + (Additive relative to each agent alone (CI = 0.9-1 by Bliss Independence Model and <0.9 by Highest Single Agent Model))
- synergy, additivity or antagonism of the combination of Example 3 with the anti-cancer drug (OVCAR-3): + (Additive relative to each agent alone (CI = 0.9-1 by Bliss Independence Model and <0.9 by Highest Single Agent Model))
- synergy, additivity or antagonism of the combination of Example 3 with the anti-cancer drug (H460): + + + + (Strong synergy relative to each agent alone (CI < 0.4 by Bliss Independence Model))
- synergy, additivity or antagonism of the combination of Example 3 with the anti-cancer drug (DLD-1): + + + (Synergy relative to each agent alone (CI = 0.4-0.74 by Bliss Independence Model))
- synergy, additivity or antagonism of the combination of Example 3 with the anti-cancer drug (WM-115): + (Additive relative to each agent alone (CI = 0.9-1 by Bliss Independence Model and <0.9 by Highest Single Agent Model))
- synergy, additivity or antagonism of the combination of Example 3 with the anti-cancer drug (Colo205): + + + (Synergy relative to each agent alone (CI = 0.4-0.74 by Bliss Independence Model))
- synergy, additivity or antagonism of the combination of Example 3 with the anti-cancer drug (MOLT4): + + (Slight synergy relative to each agent alone (CI = 0.75-0.9 by Bliss Independence Model))
- synergy, additivity or antagonism of the combination of Example 3 with the anti-cancer drug (K562): + + + (Synergy relative to each agent alone (CI = 0.4-0.74 by Bliss Independence Model))
- synergy, additivity or antagonism of the combination of Example 3 with the anti-cancer drug (T47D): + (Additive relative to each agent alone (CI = 0.9-1 by Bliss Independence Model and <0.9 by Highest Single Agent Model))
- synergy, additivity or antagonism of the combination of Example 3 with the anti-cancer drug (BT-474): + + (Slight synergy relative to each agent alone (CI = 0.75-0.9 by Bliss Independence Model))
- synergy, additivity or antagonism of the combination of Example 3 with the anti-cancer drug (Daudi): + + (Slight synergy relative to each agent alone (CI = 0.75-0.9 by Bliss Independence Model))
- synergy, additivity or antagonism of the combination of Example 3 with the anti-cancer drug (Caki-1): + (Additive relative to each agent alone (CI = 0.9-1 by Bliss Independence Model and <0.9 by Highest Single Agent Model))
- synergy, additivity or antagonism of the combination of Example 3 with the anti-cancer drug (HT29): + + (Slight synergy relative to each agent alone (CI = 0.75-0.9 by Bliss Independence Model))
- synergy, additivity or antagonism of the combination of Example 3 with the anti-cancer drug (EOL-1): + (Additive relative to each agent alone (CI = 0.9-1 by Bliss Independence Model and <0.9 by Highest Single Agent Model))
- synergy, additivity or antagonism of the combination of Example 3 with the anti-cancer drug (MDA-MB-453): + + (Slight synergy relative to each agent alone (CI = 0.75-0.9 by Bliss Independence Model))
- synergy, additivity or antagonism of the combination of Example 3 with the anti-cancer drug (U266): + (Additive relative to each agent alone (CI = 0.9-1 by Bliss Independence Model and <0.9 by Highest Single Agent Model))
- synergy, additivity or antagonism of the combination of Example 3 with the anti-cancer drug (SkBr-3): + + (Slight synergy relative to each agent alone (CI = 0.75-0.9 by Bliss Independence Model))
- synergy, additivity or antagonism of the combination of Example 3 with the anti-cancer drug (H1975): + + (Slight synergy relative to each agent alone (CI = 0.75-0.9 by Bliss Independence Model))
- synergy, additivity or antagonism of the combination of Example 3 with the anti-cancer drug (BxPC3): + + + + (Strong synergy relative to each agent alone (CI < 0.4 by Bliss Independence Model))
- synergy, additivity or antagonism of the combination of Example 3 with the anti-cancer drug (BT-20): + + + (Synergy relative to each agent alone (CI = 0.4-0.74 by Bliss Independence Model))
